Measurements: PubChem BioAssay (NCI)
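Following 48 hours of exposure in 96-well plates, responses at five concentrations were used to interpolate endpoints linearly. At the TGI there is no net growth.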

Columns and labels:
Assay in all cases: growth of human tumour cells (NCI), 48 h
OVCAR-8 ovarian = system: OVCAR-8 ovarian
NCI-H226 lung = system: NCI-H226 lung
A549 NSCLC = system: A549 NSCLC
SNB-19 CNS = system: SNB-19 CNS
OVCAR-5 ovarian = system: OVCAR-5 ovarian
HT29 colon = system: HT29 colon
SF-539 CNS = system: SF-539 CNS
SK-MEL-28 melanoma = system: SK-MEL-28 melanoma
SK-MEL-5 melanoma = system: SK-MEL-5 melanoma
MCF7 breast = system: MCF7 breast
DU-145 prostate = system: DU-145 prostate
MDA-MB-435 = system: MDA-MB-435
MDA-MB-231 breast = system: MDA-MB-231 breast
ACHN renal = system: ACHN renal
MALME-3M melanoma = system: MALME-3M melanoma
SF-268 CNS = system: SF-268 CNS
COLO 205 colon = system: COLO 205 colon
SN12C renal = system: SN12C renal
NCI-H23 lung = system: NCI-H23 lung
NCI/ADR-RES ovarian = system: NCI/ADR-RES ovarian
786-0 renal = system: 786-0 renal
SW-620 colon = system: SW-620 colon
HCT-15 colon = system: HCT-15 colon
OVCAR-4 ovarian = system: OVCAR-4 ovarian
CAKI-1 renal = system: CAKI-1 renal
SK-OV-3 ovarian = system: SK-OV-3 ovarian
SK-MEL-2 melanoma = system: SK-MEL-2 melanoma
UACC-62 melanoma = system: UACC-62 melanoma
OVCAR-3 ovarian = system: OVCAR-3 ovarian
RPMI-8226 leukemia = system: RPMI-8226 leukemia
M14 melanoma = system: M14 melanoma
SF-295 CNS = system: SF-295 CNS
HS 578T breast = system: HS 578T breast
TK-10 renal = system: TK-10 renal
MOLT-4 leukemia = system: MOLT-4 leukemia
CCRF-CEM leukemia = system: CCRF-CEM leukemia
IGROV1 ovarian = system: IGROV1 ovarian
UO-31 renal = system: UO-31 renal
HCC-2998 colon = system: HCC-2998 colon
A498 renal = system: A498 renal
HL-60(TB) leukemia = system: HL-60(TB) leukemia
KM12 colon = system: KM12 colon
SNB-75 CNS = system: SNB-75 CNS
HOP-62 NSCLC = system: HOP-62 NSCLC
HCT-116 colon = system: HCT-116 colon
LOX IMVI melanoma = system: LOX IMVI melanoma
BT-549 breast = system: BT-549 breast
HOP-92 NSCLC = system: HOP-92 NSCLC
EKVX NSCLC = system: EKVX NSCLC
MDA-N = system: MDA-N
T-47D breast = system: T-47D breast
SR leukemia = system: SR leukemia
K-562 leukemia = system: K-562 leukemia
U251 CNS = system: U251 CNS
NCI-H522 lung = system: NCI-H522 lung
PC-3 prostate = system: PC-3 prostate
UACC-257 melanoma = system: UACC-257 melanoma
NCI-H460 lung = system: NCI-H460 lung
RXF 393 renal = system: RXF 393 renal

Measured: TGI

CC1(C)OCC2OC3(c4nc(C#N)c(N)o4)OC(C)(C)OC3C2O1 (stereo unspecified)
> 100 µM: OVCAR-8 ovarian | NCI-H226 lung | A549 NSCLC | SNB-19 CNS | OVCAR-5 ovarian | HT29 colon | SF-539 CNS | SK-MEL-28 melanoma | SK-MEL-5 melanoma | MCF7 breast | DU-145 prostate | MDA-MB-435 | MDA-MB-231 breast | ACHN renal | MALME-3M melanoma | SF-268 CNS | COLO 205 colon | SN12C renal | NCI-H23 lung | NCI/ADR-RES ovarian | 786-0 renal | SW-620 colon | HCT-15 colon | OVCAR-4 ovarian | CAKI-1 renal | SK-OV-3 ovarian | SK-MEL-2 melanoma | UACC-62 melanoma | OVCAR-3 ovarian | RPMI-8226 leukemia | M14 melanoma | SF-295 CNS | HS 578T breast | TK-10 renal | MOLT-4 leukemia | CCRF-CEM leukemia | IGROV1 ovarian | UO-31 renal | HCC-2998 colon | A498 renal | HL-60(TB) leukemia | KM12 colon | SNB-75 CNS | HOP-62 NSCLC | HCT-116 colon | LOX IMVI melanoma | BT-549 breast | HOP-92 NSCLC | EKVX NSCLC | MDA-N | T-47D breast | SR leukemia | K-562 leukemia | U251 CNS | NCI-H522 lung | PC-3 prostate | UACC-257 melanoma | NCI-H460 lung | RXF 393 renal

CN(Nc1cc(=O)[nH]c(=O)[nH]1)c1ccccc1
> 100 µM: OVCAR-8 ovarian | NCI-H226 lung | A549 NSCLC | SNB-19 CNS | OVCAR-5 ovarian | HT29 colon | SF-539 CNS | SK-MEL-28 melanoma | SK-MEL-5 melanoma | MCF7 breast | DU-145 prostate | MDA-MB-435 | MDA-MB-231 breast | ACHN renal | MALME-3M melanoma | SF-268 CNS | COLO 205 colon | SN12C renal | NCI-H23 lung | NCI/ADR-RES ovarian | 786-0 renal | SW-620 colon | OVCAR-4 ovarian | CAKI-1 renal | SK-OV-3 ovarian | SK-MEL-2 melanoma | UACC-62 melanoma | OVCAR-3 ovarian | RPMI-8226 leukemia | M14 melanoma | SF-295 CNS | HS 578T breast | TK-10 renal | MOLT-4 leukemia | CCRF-CEM leukemia | IGROV1 ovarian | UO-31 renal | HCC-2998 colon | A498 renal | HL-60(TB) leukemia | KM12 colon | SNB-75 CNS | HOP-62 NSCLC | HCT-116 colon | LOX IMVI melanoma | BT-549 breast | HOP-92 NSCLC | EKVX NSCLC | MDA-N | T-47D breast | SR leukemia | K-562 leukemia | U251 CNS | PC-3 prostate | UACC-257 melanoma | NCI-H460 lung | RXF 393 renal
